Structures can show the parent of a compound that is named as a salt. Where two headings read alike, the source gives them in different places.
What was measured:
[1] = biological target: RIPK1 (Homo sapiens (Human), UniProt Q13546); assay: RIPK1 ADP-Glo biochemical kinase assay
Method: The final reaction volume was 5.0ul.
Adding 5 μl of ADP-Glo™ terminated the reaction.

[2] = test system: L929 cells; assay: L929 cell necroptosis assay (TNFa + zVAD, CellTiter-Glo); assay type: cell-based, murine; conditions: Mus musculus
Outline: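 Murine L929 cells, plated 18 h beforehand at 10K cells/well in RPMI 1640 with 10% FBS, were switched to medium containing 40 uM zVAD-fmk and given compound from 4-fold serial dilutions. Viability after 18 h of TNFa stimulation at 37° C was read by CellTiter-Glo luminescence.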

[3] = test system: U937 cells; assay: U937 cell necroptosis assay (TNFa + zVAD, CellTiter-Glo); assay type: cell-based, human; conditions: Homo sapiens
Outline: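 Human U937 and murine L929 cells in RPMI 1640/10% FBS were pre-incubated 1 h at 37 °C with serially diluted compound plus zVAD-fmk (U937 plated with 60 uM, L929 medium with 40 uM), then stimulated with 2 ng/mL TNFa (final). Viability read by CellTiter-Glo luminescence after 18 h.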

[4] = L929, L929 cells, TNFa + zVAD, read-out: L929-CTG-recovery, L929, TNFa + zVAD (IC50)
[5] = U-937, U937 cells, TNFa + zVAD, read-out: U937 Zvad TNF CTG Recovery, U937, TNFa + zVAD (IC50)
[6] = read-out: RIPK1 ADP-Glo Kinase (IC50)
[7] = L929, read-out: L929-CTG-recovery, L929, TNFa + zVAD (IC50), L929 cells, TNFa + zVAD
[8] = U-937, read-out: U937 Zvad TNF CTG Recovery, U937, TNFa + zVAD (IC50), U937 cells, TNFa + zVAD

RIPK1, sequence (Q13546 whole entry, species assumed): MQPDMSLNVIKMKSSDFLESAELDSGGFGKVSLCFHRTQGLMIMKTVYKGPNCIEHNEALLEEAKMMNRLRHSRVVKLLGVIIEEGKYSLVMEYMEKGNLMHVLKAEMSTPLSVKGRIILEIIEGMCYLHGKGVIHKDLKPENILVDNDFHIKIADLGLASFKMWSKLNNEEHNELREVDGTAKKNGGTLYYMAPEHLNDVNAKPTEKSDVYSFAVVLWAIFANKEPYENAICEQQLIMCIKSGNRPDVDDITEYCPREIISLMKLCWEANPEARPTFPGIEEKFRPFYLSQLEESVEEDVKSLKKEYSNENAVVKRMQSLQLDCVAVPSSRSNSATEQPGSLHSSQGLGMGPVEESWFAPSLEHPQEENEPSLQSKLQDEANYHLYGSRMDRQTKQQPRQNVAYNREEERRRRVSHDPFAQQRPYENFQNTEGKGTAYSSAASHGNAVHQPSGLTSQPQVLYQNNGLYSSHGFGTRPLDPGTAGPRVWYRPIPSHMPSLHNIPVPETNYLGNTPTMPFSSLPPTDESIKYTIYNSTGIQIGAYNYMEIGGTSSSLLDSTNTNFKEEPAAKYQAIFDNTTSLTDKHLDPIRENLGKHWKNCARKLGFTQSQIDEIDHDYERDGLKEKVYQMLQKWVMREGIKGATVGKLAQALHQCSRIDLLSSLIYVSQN

| IC50 [1, 6] [nM] | Structure (SMILES) | IC50 [1] [nM] | IC50 [2, 4] [nM] | IC50 [3, 5] [nM] | IC50 ([2]; L929 cells, TNFa + zVAD, read-out: L929-CTG-recovery, L929, TNFa + zVAD (IC50)) [nM] | IC50 [2, 7] [nM] | IC50 [3, 8] [nM] |
| --- | --- | --- | --- | --- | --- | --- | --- |
|  | CN1C(=O)[C@@H](NC(=O)n2cc(Cc3ccc(F)cc3F)cn2)COc2ccc(Br)cc21 [Compound I-237, (S)—N-(7-Bromo-5-methyl-4-oxo-2,3,4,5-tetrahydrobenzo[b][1,4]oxazepin-3-yl)-4-(2,4-difluorobenzyl)-1H-pyrazole-1-carboxamide] | 43.1 | 15500 | 135 |  |  |  |
| 39.7 | CN1C(=O)[C@@H](NC(=O)n2cc(Cc3ccc(F)cc3)cn2)COc2ccc(C#CC3(O)CCC3)cc21 [Compound I-221, (S)-4-(4-Fluorobenzyl)-N-(7-((l-hydroxycyclobutyl)ethynyl)-5-methyl-4-oxo-2,3,4,5-tetrahydrobenzo[b][1,4]oxazepin-3-yl)-1H-pyrazole-1-carboxamide] |  | 72.2 | 2.5 |  |  |  |
| 616 | CCN(C(=O)c1n[nH]c(Cc2ccccc2)n1)[C@H]1COc2ccc(C#CC(C)(C)O)cc2N(C)C1=O [Compound I-86, (S)-5-benzyl-N-ethyl-N-(7-(3-hydroxy-3-methylbut-1-yn-1-yl)-5-methyl-4-oxo-2,3,4,5-tetrahydrobenzo[b][1,4]oxazepin-3-yl)-1H-1,2,4-triazole-3-carboxamide] |  | 0.6 | 4.1 |  |  |  |
| 31.6 | CN1C(=O)[C@@H](NC(=O)c2cc(OC3CCCC3)ccn2)COc2ccc(C#CC3(O)COC3)cc21 [Compound I-157, (S)-4-(cyclopentyloxy)-N-(7-((3-hydroxyoxetan-3-yl)ethynyl)-5-methyl-4-oxo-2,3,4,5-tetrahydrobenzo[b][1,4]oxazepin-3-yl)picolinamide] |  | 5160 | 25.5 |  |  |  |
| 17.5 | COC(=O)C#Cc1ccc2c(c1)N(C)C(=O)[C@@H](NC(=O)c1cc(Oc3ccccc3)ccn1)CO2 [Compound I-159, Methyl (S)-3-(5-methyl-4-oxo-3-(4-phenoxypicolinamido)-2,3,4,5-tetrahydrobenzo[b][1,4]oxazepin-7-yl)propiolate] |  | 16100 | 21 |  |  |  |
| 153 | CN1C(=O)[C@@H](NC(=O)c2n[nH]c(Cc3ccccc3)n2)COc2ccc(CN3CCN(c4ccncc4)CC3)cc21 [Compound I-20, (S)-5-benzyl-N-(5-methyl-4-oxo-7-((4-(pyridin-4-yl)piperazin-1-yl)methyl)-2,3,4,5-tetrahydrobenzo[b][1,4]oxazepin-3-yl)-1H-1,2,4-triazole-3-carboxamide] |  | 53400 | 13.6 |  |  |  |
|  | CN1C(=O)[C@@H](NC(=O)n2cc(Cc3ccccc3)cn2)COc2ccc(N3CC4(CCOCC4)C3)cc21 [Compound I-217, (S)-4-Benzyl-N-(5-methyl-4-oxo-7-(7-oxa-2-azaspiro[3.5]nonan-2-yl)-2,3,4,5-tetrahydrobenzo[b][1,4]oxazepin-3-yl)-1H-pyrazole-1-carboxamide] | 23.9 | 597 | 0.5 |  |  |  |
|  | CN1C(=O)[C@@H](NC(=O)n2cc(Cc3ccc(F)cc3F)cn2)COc2ccc(C#CC(C)(C)CN)cc21 [Compound I-241, (S)—N-(7-(4-Amino-3,3-dimethylbut-1-yn-1-yl)-5-methyl-4-oxo-2,3,4,5-tetrahydrobenzo[b][1,4]oxazepin-3-yl)-4-(2,4-difluorobenzyl)-1H-pyrazole-1-carboxamide hydrochloride] | 50.1 | 2100 | 62.6 |  |  |  |
| 491 | CN1C(=O)[C@@H](NC(=O)c2n[nH]c(Cc3ccccc3)n2)COc2ccc(CCCCNc3ccccn3)cc21 [Compound I-17, (S)-5-benzyl-N-(5-methyl-4-oxo-7-(4-(pyridin-2-ylamino)butyl)-2,3,4,5-tetrahydrobenzo[b][1,4]oxazepin-3-yl)-1H-1,2,4-triazole-3-carboxamide] |  | 368 | 2.4 |  |  |  |
| 21.9 | CN1C(=O)[C@@H](NC(=O)c2ncn(Cc3ccccc3)n2)COc2ccc(CCC(N)=O)cc21 [Compound I-32, (S)—N-(7-(3-amino-3-oxopropyl)-5-methyl-4-oxo-2,3,4,5-tetrahydrobenzo[b][1,4]oxazepin-3-yl)-1-benzyl-1H-1,2,4-triazole-3-carboxamide] |  | 17700 | 2.7 |  |  |  |
| 28.6 | CN1C(=O)[C@@H](NC(=O)c2cc(Oc3ccccc3)ccn2)COc2ccc(C#CC(C)(C)N3CCCC3)cc21 [Compound I-210, (S)—N-(5-Methyl-7-(3-methyl-3-(pyrrolidin-1-yl)but-1-yn-1-yl)-4-oxo-2,3,4,5-tetrahydrobenzo[b][1,4]oxazepin-3-yl)-4-phenoxypicolinamide] |  | 470 | 4.2 |  |  |  |
| 24.5 | CN1C(=O)[C@@H](NC(=O)n2cc(Cc3ccc(F)cc3)cn2)COc2ccc(C#CC(C)(C)O)cc21 [Compound I-218, (S)-4-(4-fluorobenzyl)-N-(7-(3-hydroxy-3-methylbut-1-yn-1-yl)-5-methyl-4-oxo-2,3,4,5-tetrahydrobenzo[b][1,4]oxazepin-3-yl)-1H-pyrazole-1-carboxamide] |  | 75.8 | 2.6 |  |  |  |
| 35.2 | CN1C(=O)[C@@H](NC(=O)c2cc(Oc3ccccc3)ccn2)COc2ccc(C#CC3(F)COC3)cc21 [Compound I-129, (S)—N-(7-((3-fluorooxetan-3-yl)ethynyl)-5-methyl-4-oxo-2,3,4,5-tetrahydrobenzo[b][1,4]oxazepin-3-yl)-4-phenoxypicolinamide] |  | 24.1 | 0.7 |  |  |  |
| 31.6 | CN1C(=O)[C@@H](NC(=O)c2cc(Oc3ccccc3)ccn2)COc2ccc(C#CCN3CCOCC3)cc21 [Compound I-117, (S)—N-(5-methyl-7-(3-morpholinoprop-1-yn-1-yl)-4-oxo-2,3,4,5-tetrahydrobenzo[b][1,4]oxazepin-3-yl)-4-phenoxypicolinamide] |  | 11.2 | 0.2 |  |  |  |

| Structure (SMILES) | IC50 [1, 6] [nM] | IC50 [1] [nM] | IC50 [2, 4] [nM] | IC50 [3, 5] [nM] | IC50 ([2]; L929 cells, TNFa + zVAD, read-out: L929-CTG-recovery, L929, TNFa + zVAD (IC50)) [nM] | IC50 [2, 7] [nM] | IC50 [3, 8] [nM] |
| --- | --- | --- | --- | --- | --- | --- | --- |
| CN1C(=O)[C@@H](NC(=O)c2nnc(C3(c4ccccc4)CC3)o2)COc2ccc(N3CC4(CCOCC4)C3)cc21 [Compound I-235, (S)—N-(5-methyl-4-oxo-7-(7-oxa-2-azaspiro[3.5]nonan-2-yl)-2,3,4,5-tetrahydrobenzo[b][1,4]oxazepin-3-yl)-5-(1-phenylcyclopropyl)-1,3,4-oxadiazole-2-carboxamide] | 62.1 |  |  | 13.2 | 1070 |  |  |
| CN1CC(F)(C#Cc2ccc3c(c2)N(C)C(=O)[C@@H](NC(=O)c2cc(Oc4ccccc4)ccn2)CO3)C1 [Compound I-146] | 17.3 |  |  |  |  | 18.3 | 0.4 |
| CN1C(=O)[C@@H](NC(=O)n2cc(Cc3ccccc3)cn2)COc2ccc(C#CC3(O)COC3)cc21 [Compound I-216, (S)-4-Benzyl-N-(7-((3-hydroxyoxetan-3-yl)ethynyl)-5-methyl-4-oxo-2,3,4,5-tetrahydrobenzo[b][1,4]oxazepin-3-yl)-1H-pyrazole-1-carboxamide] | 18.8 |  |  |  |  | 28.5 | 0.5 |
| CN1CC(O)(C#Cc2ccc3c(c2)N(C)C(=O)[C@@H](NC(=O)c2cc(Oc4ccccc4)ccn2)CO3)C1 [Compound I-137, (S)—N-(7-((3-hydroxy-1-methylazetidin-3-yl)ethynyl)-5-methyl-4-oxo-2,3,4,5-tetrahydrobenzo[b][1,4]oxazepin-3-yl)-4-phenoxypicolinamide] | 23.6 |  |  |  |  | 333 | 5 |
